The text below walks through data of US20220125886A1 (The Board of Trustees of the Leland Stanford Junior …, priority 2019, published 2022).

Series [1] in a line: Circular dichroism of protein secondary structure when bound to CB[7]-PEG. The series is classed as physicochemical. The conditions noted are these: PBS pH 7.4, with CB[7]-PEG, with or without EDTA. How it is done: After mixing, samples were left to equilibrate for 15 minutes at room temperature. […] circular dichroism spectroscopy was performed at 20° C. with a J-815 CD Spectropolarimeter (Jasco Corporation) over a wavelength range of 185-250 nm using a 0.1 cm pathlength cell.

The nature of series [2]: Diffusion-ordered NMR spectroscopy (DOSY) of protein/CB[7]-PEG complexes. It counts as physicochemical. Particulars: for diffusion rate D: DOSY, protein 6 mg mL^−1, 200 mM phosphate buffer pH 7, D2O, zinc removed with EDTA; for hydrodynamic radius (Rh): approximated from D by the Stokes-Einstein relationship. From the text: A Varian Inova 600 MHz NMR instrument was used to acquire the data. Magnetic field strengths ranging from 2 to 57 G cm^−1. The DOSY time and gradient pulse were set at 132 ms (Δ) and 3 ms (δ) respectively. All NMR data were processed using MestReNova 11.0.4 software.

For series [3] the following is noted: given for comparison; cited from earlier work.
Series [4] can be described thus: In vitro stability: aggregation under stressed conditions by change in transmittance at 540 nm. It counts as physicochemical. How it is done:
These aggregates are large and scatter light, allowing the degree of aggregation to be evaluated by measuring the change in transmittance over time. […] Data shown in FIGS. 2A-2E are the average transmittance trace for n=3 samples per group.
The plate was immediately placed into an plate reader and incubated with continuous shaking 37° C. Absorbance readings were taken every 10 minutes at 540 nm for 100 h (BioTek SynergyH1 microplate reader).
Controls included: (i) NOVOLOG®, (ii) zinc-free NOVOLOG®, (iii) pramlintide (sodium acetate buffer at pH=4), (iv) pramlintide (PBS at pH=7), (v) NOVOLOG®+pramlintide (PBS at pH=7.4).

For series [5] the following is noted: according to Webber et al., agitation; cited from earlier work.
The conditions of series [6]: reported previously, used for the fit; cited from earlier work.

Entries after “also recorded” stand apart in the source; their conditions may differ.

For insulin aspart, the “effect of CB[7]-PEG binding on protein (secondary) structure” value in series [1] was “did not affect protein structure; also recorded: did not alter the secondary structure”. In addition, in series [2], the “diffusion rate D” value was ~1.2×10^−10 m^2 s^−1 and the “hydrodynamic radius (Rh)” value is on record as around 2.2 nm.

Regarding “insulin hexamer: hexameric association state of insulin in standard zinc formulations”, the hydrodynamic radius result in series [3] is “approximately 2.8 nm”.

For `CC[C@H](C)[C@H](NC(=O)[C@@H]1CCCN1C(=O)CNC(=O)[C@H](Cc1ccccc1)NC(=O)[C@H](CC(N)=O)NC(=O)[C@H](CC(N)=O)NC(=O)[C@H](CO)NC(=O)[C@H](CO)NC(=O)[C@H](Cc1c[nH]cn1)NC(=O)[C@@H](NC(=O)[C@H](CC(C)C)NC(=O)[C@H](Cc1ccccc1)NC(=O)[C@H](CC(N)=O)NC(=O)[C@H](C)NC(=O)[C@H](CC(C)C)NC(=O)[C@H](CCCNC(=N)N)NC(=O)[C@H](CCC(N)=O)NC(=O)[C@@H](NC(=O)[C@H](C)NC(=O)[C@@H]1CSSC[C@H](NC(=O)[C@@H](N)CCCCN)C(=O)N[C@@H](CC(N)=O)C(=O)N[C@@H]([C@@H](C)O)C(=O)N[C@@H](C)C(=O)N[C@@H]([C@@H](C)O)C(=O)N1)[C@@H](C)O)C(C)C)C(=O)N[C@@H](CC(C)C)C(=O)N1CCC[C@H]1C(=O)N1CCC[C@H]1C(=O)N[C@H](C(=O)N[C@@H](CC(N)=O)C(=O)N[C@H](C(=O)NCC(=O)N[C@@H](CO)C(=O)N[C@@H](CC(N)=O)C(=O)N[C@H](C(=O)N[C@@H](Cc1ccc(O)cc1)C(N)=O)[C@@H](C)O)C(C)C)[C@@H](C)O` [pramlintide], the “effect of CB[7]-PEG binding on protein (secondary) structure” value in series [1] is listed as “did not affect protein structure; also recorded: no difference in protein secondary structure was observed”. In addition, the time stable entry in series [4] (pH=4 sodium acetate buffer) was “over 100 hours”. In addition, the “time to aggregation / time stable” value in series [4] (pH=7.4 in PBS, aggregation measured as ~5% change in transmittance at 540 nm) was 15 ± 4 h. Moreover, in series [2], the “diffusion rate D” value was ~2×10^−10 m^2 s^−1 and the “hydrodynamic radius (Rh)” value came to 1.2 nm. Also, the “ratio of diffusion rates, pramlintide alone to insulin in a standard formulation” value in series [2] (standard formulation) was around 2.3.

Take “native insulin: recombinant human insulin of Webber et al.”: the “aggregation time (tA), 10% reduction in transmittance” value in series [5] was 13.6 ± 0.2 h.

As to `CN(C)c1ccc2cc3ccc(N(C)C)cc3nc2c1` [AO, Acridine Orange], the “CB[7]⋅AO equilibrium constant (Keq)” value in series [6] is 200000 M⁻¹.
